These results are taken from PubChem BioAssay (NCI).

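Tested at 5 concentrations; 48 h exposure; 96-well plates; endpoints linearly interpolated, else capped at highest concentration. GI50: concentration for 50% inhibition of growth. At the TGI there is no net growth.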

Test systems include K-562 leukemia; A498 renal; HCC-2998 colon; SNB-19 CNS; T-47D breast; MALME-3M melanoma; MDA-MB-435; NCI/ADR-RES ovarian; NCI-H522 lung; UO-31 renal.
What all share (experiment): DTP human tumour cell line panel, 48 h

What is called GI50 is the concentration at which growth is held to half of that of the control. One may read the TGI as the concentration giving total growth inhibition. Higher therefore signals less potent growth arrest. With `CCOC(=O)c1ccc(N(CCOS(C)(=O)=O)CCOS(C)(=O)=O)cc1C`, the GI50 is 49.7 µM in the assay with K-562 leukemia; 24.1 µM with A498 renal; 28.1 µM in the assay with HCC-2998 colon; 62.6 µM with SNB-19 CNS; 16.6 µM in the assay with T-47D breast; 29 µM with MALME-3M melanoma. The GI50 in the assay on MDA-MB-435 was 48.5 µM; with NCI/ADR-RES ovarian, 23.7 µM; in the assay on NCI-H522 lung, 18.8 µM; with UO-31 renal, 23.1 µM. Also, the TGI is above 100 µM with K-562 leukemia; 73.3 µM in the assay with A498 renal; 66.6 µM with HCC-2998 colon; above 100 µM with SNB-19 CNS; 62.1 µM in the assay with T-47D breast; above 100 µM with MALME-3M melanoma. Besides, the TGI in the assay with MDA-MB-435 was above 100 µM; in the assay with NCI/ADR-RES ovarian, 66.9 µM; in the assay with NCI-H522 lung, 61.8 µM; in the assay with UO-31 renal, 45.9 µM.

Turning to `ClCc1ccc(-c2ccc(Cn3cnc4c(Cl)nc(Cl)nc43)cc2)cc1`, the GI50 is 10.4 µM with K-562 leukemia; 2.33 µM with A498 renal; 1.41 µM in the assay with HCC-2998 colon; 1.95 µM in the assay on SNB-19 CNS; 1.9 µM in the assay on T-47D breast; 7.06 µM in the assay on MALME-3M melanoma. The GI50 is 2.74 µM with MDA-MB-435, 2.5 µM in the assay with NCI/ADR-RES ovarian, 2.33 µM in the assay on NCI-H522 lung and 3.32 µM in the assay on UO-31 renal. Moreover, the TGI with K-562 leukemia is above 100 µM; in the assay on A498 renal it was 11.4 µM; with HCC-2998 colon, 2.9 µM; with SNB-19 CNS, 4.15 µM; with T-47D breast, 4.64 µM; in the assay with MALME-3M melanoma it was 23.8 µM. For the same compound, the TGI was found to be 9.37 µM in the assay on MDA-MB-435, 7.55 µM with NCI/ADR-RES ovarian, 6.79 µM with NCI-H522 lung and 8.18 µM in the assay on UO-31 renal.

On to `CCCc1cc2cc(-n3nc(C)c4c3CC(C)(C)CC4=O)cc(NC3CCC(O)CC3)c2c(=O)[nH]1` (stereo not given), for which the GI50 was 0.0502 µM in the assay on K-562 leukemia; 0.437 µM in the assay with A498 renal; 0.144 µM in the assay with HCC-2998 colon; 0.523 µM in the assay with SNB-19 CNS; 0.0994 µM in the assay with T-47D breast; 0.142 µM in the assay on MALME-3M melanoma. Also, the concentration for 50% growth inhibition (GI50) was 0.0812 µM with MDA-MB-435, 0.986 µM in the assay on NCI/ADR-RES ovarian, 0.257 µM in the assay with NCI-H522 lung and 0.146 µM in the assay on UO-31 renal. In addition, the concentration for total growth inhibition (TGI) with K-562 leukemia is above 100 µM; in the assay on A498 renal, above 100 µM; with HCC-2998 colon it was above 100 µM; in the assay on SNB-19 CNS, above 100 µM; with T-47D breast it was above 100 µM; in the assay on MALME-3M melanoma, 3.34 µM. The TGI with MDA-MB-435, in the assay on NCI/ADR-RES ovarian, in the assay with NCI-H522 lung and in the assay on UO-31 renal was above 100 µM each time.

As to `COc1ccc2c(c1)CCc1c(-c3noc4c3CCc3cc(OC)ccc3-4)noc1-2`, the TGI with K-562 leukemia, in the assay with A498 renal, with HCC-2998 colon, in the assay on SNB-19 CNS, in the assay with T-47D breast and in the assay on MALME-3M melanoma was above 100 µM throughout. Moreover, the TGI in the assay on MDA-MB-435, in the assay with NCI/ADR-RES ovarian, with NCI-H522 lung and in the assay with UO-31 renal was above 100 µM throughout.

With `COC(=O)C(C)NP(=O)(OCc1ccc(Cn2cnc3c(=O)[nH]c(N)nc32)cc1)Oc1ccccc1` (stereo not given), the GI50 in the assay with K-562 leukemia is above 100 µM; in the assay with A498 renal, above 100 µM; with HCC-2998 colon, above 100 µM; with SNB-19 CNS, above 100 µM; with T-47D breast, 34.6 µM; in the assay with MALME-3M melanoma, above 100 µM. Also, the GI50 with MDA-MB-435, in the assay on NCI/ADR-RES ovarian, in the assay on NCI-H522 lung and with UO-31 renal was above 100 µM in each case. Besides, the TGI in the assay with K-562 leukemia, in the assay on A498 renal, with HCC-2998 colon, in the assay on SNB-19 CNS, in the assay on T-47D breast and in the assay with MALME-3M melanoma was above 100 µM throughout. Moreover, the TGI with MDA-MB-435, in the assay on NCI/ADR-RES ovarian, in the assay with NCI-H522 lung and with UO-31 renal was above 100 µM each time.

For `CN[C@]12CC3(C=CC(=O)C=C3)O[C@@]1(Cc1ccc(OC)cc1)N(C)C(=O)N2`, the GI50 in the assay with K-562 leukemia is 1.58 µM; with A498 renal, 16.2 µM; in the assay with HCC-2998 colon it was 1.93 µM; in the assay on SNB-19 CNS, 3.63 µM; in the assay on T-47D breast, 2.12 µM; in the assay on MALME-3M melanoma, 2.69 µM. Besides, the GI50 with MDA-MB-435 was 2.57 µM; in the assay on NCI/ADR-RES ovarian it was 3.46 µM; in the assay on NCI-H522 lung it was 0.371 µM; in the assay on UO-31 renal, 1.47 µM. Moreover, the TGI was above 100 µM in the assay with K-562 leukemia; 31.6 µM in the assay with A498 renal; 3.61 µM in the assay with HCC-2998 colon; 14.5 µM in the assay with SNB-19 CNS; 7.23 µM with T-47D breast; 7.85 µM in the assay on MALME-3M melanoma. For the same compound, the TGI in the assay on MDA-MB-435 is 8.64 µM; with NCI/ADR-RES ovarian, above 100 µM; with NCI-H522 lung, 2.14 µM; with UO-31 renal it was 2.89 µM.

As to `CCOC(=O)c1c(C)nc2ccc(Cl)cc2c1-c1ccccc1`, the GI50 in the assay on K-562 leukemia was 20.1 µM; in the assay with A498 renal, 15.5 µM; with HCC-2998 colon it was 19.4 µM; in the assay with SNB-19 CNS, 14.4 µM; in the assay with T-47D breast it was 12.9 µM; in the assay on MALME-3M melanoma it was 17.6 µM. The GI50 in the assay on MDA-MB-435 was 23.9 µM; with NCI/ADR-RES ovarian it was 22.2 µM; in the assay on NCI-H522 lung, 14.2 µM; in the assay on UO-31 renal, 14.8 µM. In addition, the TGI in the assay on K-562 leukemia is above 100 µM; in the assay with A498 renal, 33.4 µM; in the assay with HCC-2998 colon it was 46.9 µM; in the assay with SNB-19 CNS it was 34.9 µM; in the assay on T-47D breast it was 47.8 µM; with MALME-3M melanoma it was 42.3 µM. The TGI with MDA-MB-435 stood at 68.4 µM; in the assay on NCI/ADR-RES ovarian, 80.2 µM; in the assay with NCI-H522 lung, 36.6 µM; in the assay with UO-31 renal, 31.1 µM.
